# Test results published in patent publication US20260007715A1, “WOUND CARE DEVICE” (priority 2019, published 2026).
# Entries after “also recorded” stand apart in the source; their conditions may differ. Where no end group is shown, it is not given here.
# Assays:
# [1] = tested on: plasmatic coagulation; conditions: literature, Int. J. Mol. Sci. 2019, 20, 5426; cited from earlier work
# [2] = tested on: Horse blood; assay: Blood coagulation on hydrogel samples with different peptides, whole horse blood test (Experiment 3); type: cell-based; conditions: citrated horse blood recalcified, 60 min at 37° C., washed three times with PBS, duplicate
# Experimental: Hydrogels were functionalized with 4 different types of antimicrobial peptides (AMPs). The AMPs used were PGLa, LL-37, Temporin B and RRP9W4. As control hydrogels without any attached AMPs were used.
# Fresh citrated Horse blood was purchased from Håtunalab AB, Sweden and used to show how if presence of AMPs can induce clotting. In an Eppendorf tube, 1 ml of blood with 0.1 ml of 250 Mm calcium chloride (to reverse the citrate anticoagulant) was added and mixed.
# Samples were placed in 24 well plate and conditioned by adding 1 ml PBS to the hydrogels. After 15 minutes the samples were transferred to the Eppendorf tubes containing the blood. The tubes were then placed on shaker and incubated for 60 min at 37° C.
# As blank controls, 1 ml of blood was added to an Eppendorf tube without any hydrogels and treated with the same conditions. […] Samples were run in duplicate.
substance,measurement,setting,value
"LL-37: human cathelicidin derived LL-37 peptide (LLGDFFRKSKEKIGKEFKRIVQRIKDFLRNLVPRTES; Antibacterial peptide LL-37; UniProt P49913 134-170, looked up)",effect on plasmatic coagulation,[1],not to affect plasmatic coagulation
same,Observations (clot on hydrogel),[2],no clot formation; also recorded: did not form a strong clot; also recorded: No visible clot was observed
"RRPRPRPRPWWWW-NH2 [RRP9W4, PRELP derived antimicrobial peptide]",Observations (clot on hydrogel),[2],large visible clot; also recorded: surprising clotting effect; also recorded: Big clot with firm attachment onto the surface
